# The supplement of paper PMC10307832
# Legend:
# Experiment in all cases: relative viability (nuclei count vs DMSO), 5 days (fraction); higher = more cells survive
# [1] = compound: C[C@]12O[C@H](C[C@]1(O)CO)n1c3ccccc3c3c4c(c5c6ccccc6n2c5c31)CNC4=O [Lestaurtinib] + CC1(C)CCC(c2ccc(Cl)cc2)=C(CN2CCN(c3ccc(C(=O)NS(=O)(=O)c4ccc(N[C@H](CCN5CCOCC5)CSc5ccccc5)c(S(=O)(=O)C(F)(F)F)c4)cc3)CC2)C1 [Navitoclax] (partner 0.5 µM)
# Outline: (§1)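 The day after seeding in 1536-well plates, lung cancer cell lines were treated by pin tool with a single drug, or with a fixed anchor-drug dose together with five library-drug doses (not always all listed) in √10 steps. After 5 days, a combined fix-and-stain solution (final 0.05% Triton X-100, 1% formaldehyde, 1 ug/ml Hoechst) was added. Nuclei counted on 4× images gave relative viability as treated counts over vehicle counts, reported as the median of duplicate plates.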
# [2] = compound: C1/C(=C\C2=CC=CS2)/C(=O)/C(=C/C3=CC=CS3)/C1 + CC1(C)CCC(c2ccc(Cl)cc2)=C(CN2CCN(c3ccc(C(=O)NS(=O)(=O)c4ccc(N[C@H](CCN5CCOCC5)CSc5ccccc5)c(S(=O)(=O)C(F)(F)F)c4)cc3)CC2)C1 [Navitoclax] (partner 0.5 µM)
# Outline: as §1
# Lestaurtinib + Alpelisib = compound: C[C@]12O[C@H](C[C@]1(O)CO)n1c3ccccc3c3c4c(c5c6ccccc6n2c5c31)CNC4=O [Lestaurtinib] + Cc1nc(NC(=O)N2CCC[C@H]2C(N)=O)sc1-c1ccnc(C(C)(C)C(F)(F)F)c1 [Alpelisib] (partner 2 µM)
# Outline: as §1
# [3] = compound: C[C@]12O[C@H](C[C@]1(O)CO)n1c3ccccc3c3c4c(c5c6ccccc6n2c5c31)CNC4=O [Lestaurtinib] + Cc1cc(Nc2cc(N3CCN(C)CC3)nc(Sc3ccc(NC(=O)C4CC4)cc3)n2)n[nH]1 [Tozasertib] (partner 0.1 µM)
# Outline: as §1
Cell Line,relative viability ([1]; first compound 0.005 µM),relative viability ([1]; first compound 0.01581 µM),relative viability ([1]; first compound 0.05 µM),relative viability ([1]; first compound 0.1581 µM),relative viability ([1]; first compound 0.5 µM),relative viability ([2]; first compound 0.2 µM),relative viability ([2]; first compound 0.6325 µM),relative viability ([2]; first compound 2 µM),relative viability ([2]; first compound 6.325 µM),relative viability ([2]; first compound 20 µM),relative viability (Lestaurtinib + Alpelisib; first compound 0.005 µM),relative viability (Lestaurtinib + Alpelisib; first compound 0.01581 µM),relative viability (Lestaurtinib + Alpelisib; first compound 0.05 µM),relative viability (Lestaurtinib + Alpelisib; first compound 0.1581 µM),relative viability (Lestaurtinib + Alpelisib; first compound 0.5 µM),relative viability ([3]; first compound 0.005 µM),relative viability ([3]; first compound 0.01581 µM),relative viability ([3]; first compound 0.05 µM),relative viability ([3]; first compound 0.1581 µM),relative viability ([3]; first compound 0.5 µM)
HCC-44,0.88,1.06,0.925,1.12,0.62,0.903,0.987,0.935,0.832,0.895,0.782,0.973,0.644,0.834,0.469,0.882,1.08,0.996,1.48,0.354
HCC-78,0.897,0.906,0.533,0.333,0.211,0.81,0.786,0.82,0.682,0.782,0.349,0.328,0.334,0.246,0.226,0.434,0.363,0.436,0.353,0.183
HCC-366,1.1,1.11,0.977,1.56,0.581,1.09,1,0.955,1.05,1.05,0.477,0.438,0.388,0.287,0.209,0.174,0.126,0.142,0.0841,0.072
HCC-827,1.07,1.01,0.98,0.847,0.604,1.1,0.966,1.01,0.959,1.02,0.948,0.905,0.862,0.585,0.311,0.492,0.405,0.396,0.348,0.217
HOP-62,0.979,1.07,0.657,0.916,0.988,0.985,1.23,0.8,0.952,1.06,1.05,0.919,1.17,0.775,0.436,0.35,0.43,0.396,0.356,0.234
IA-LM,0.887,0.994,0.817,0.85,0.236,0.938,0.925,0.88,0.565,0.704,0.967,0.964,1.13,1.05,0.28,–,–,–,–,–
LC-2-ad,0.344,0.402,0.201,0.137,0.107,0.451,0.451,0.399,0.406,0.49,0.961,0.829,0.354,0.227,0.139,0.441,0.498,0.442,0.393,0.289
LCLC-97TM1,0.636,0.564,0.246,0.14,0.249,0.345,0.337,0.367,0.297,0.261,0.256,0.189,0.171,0.138,0.148,0.317,0.177,0.0893,0.133,0.171
LCLC-103H,–,–,–,–,–,–,–,–,–,–,1.06,0.991,0.678,0.683,0.651,0.526,0.595,0.384,0.424,0.209
LK-2,1.01,0.838,0.673,0.374,0.169,0.824,0.956,0.702,0.862,0.89,1.37,0.97,1.01,0.647,0.365,0.161,0.183,0.165,0.17,0.164
NCI-H358,–,–,–,–,–,–,–,–,–,–,0.656,0.601,0.343,0.266,0.202,0.103,0.0848,0.0849,0.0845,0.0896
NCI-H522,–,–,–,–,–,–,–,–,–,–,–,–,–,–,–,0.571,0.536,0.627,0.528,0.496
NCI-H650,–,–,–,–,–,–,–,–,–,–,1.24,1.04,0.748,0.49,0.429,0.727,0.802,0.603,0.483,0.29
NCI-H661,–,–,–,–,–,–,–,–,–,–,0.618,0.953,0.495,0.477,0.406,0.359,0.361,0.395,0.423,0.417
NCI-H1299,1.02,1.06,0.946,0.845,0.489,1.08,1.08,1.03,0.973,1.05,1.14,1.05,0.559,0.614,0.713,–,–,–,–,–
NCI-H1563,–,–,–,–,–,–,–,–,–,–,0.88,0.954,0.944,0.865,0.813,–,–,–,–,–
NCI-H1623,–,–,–,–,–,–,–,–,–,–,–,–,–,–,–,0.42,0.722,0.415,0.418,0.424
NCI-H1648,–,–,–,–,–,–,–,–,–,–,–,–,–,–,–,0.377,0.649,0.391,0.487,0.49
NCI-H1650,1.24,1.37,1.31,1.56,0.503,1.11,1.15,1.21,1.1,1.24,–,–,–,–,–,0.469,0.526,0.343,0.371,0.313
NCI-H1703,1.22,1.09,0.424,0.219,0.11,1.3,1.8,1.32,1.05,1.14,0.293,0.288,0.283,0.2,0.117,–,–,–,–,–
NCI-H1792,0.322,0.86,0.428,0.23,0.166,0.666,0.579,0.743,–,0.624,0.858,0.875,0.516,0.429,0.209,–,–,–,–,–
NCI-H2342,–,–,–,–,–,–,–,–,–,–,–,–,–,–,–,0.528,0.502,0.538,0.418,0.418
SW 900,–,–,–,–,–,–,–,–,–,–,–,–,–,–,–,0.462,0.683,0.503,0.703,0.538
